Experimental data: patent publication US11479537B2, “T-type calcium channel inhibitor” (KINKI UNIVERSITY, priority 2017, dated 2022)
pIC50: −log10 of the molar value.

Columns and labels:
[1] = test system: human T-type calcium channel; experiment: Whole-cell patch clamp measurement of T-type calcium channel inhibition (barium T-current); format: cell-based; details: for Ratio of IC50 value to IC50 value of 6-prenylnaringenin (%): IC50 as percentage of the IC50 of 6-prenylnaringenin, measured as in Example 1; for T-type calcium channel inhibitory action (in words): whole-cell patch clamp, in vitro; for Inhibition rate (%): EK293 cell forcibly expressing human T-type calcium channel, 6 cases
Experimental: Using a human kidney cell-derived cell line, an EK293 cell, in which a human T-type calcium channel was forcibly expressed, the inhibitory effect of 6-prenylnaringenin on the T-type calcium channel was measured by the whole cell patch clamp method.
In the whole-cell patch clamp method, the following solutions are used as an external solution and an internal solution, the holding potential is set to −80 mV, and the barium current was measured as an inward current flow upon a potential jump from −80 mV to −20 mV. Here, in order to eliminate the influence of the high threshold activated-calcium channel, a value obtained by subtracting the current at 150 ms after the start of stimulation from the peak current was used as a T-channel current (T-current) for data analysis.
External Solution Composition
Aqueous solution containing the following: • 97 mM N-methyl-D-glucamine (NMDG); • 10 mM BaCl2; • 10 mM 4-(2-hydroxyethyl)-1-piperazine ethanesulfonic acid (HEPES); • 40 mM tetraethylammonium chloride (TEA-Cl); and • 5 mM glucose • (pH 7.4). Internal Solution Composition
Aqueous solution containing the following: • 4 mM MgCl2; • 140 mM CsCl; • 10 mM HEPES; and • 5 mM glycol ether diamine tetraacetic acid (EGTA) • (pH 7.2).
The inhibitory effect of the compound of the present invention on the T-type calcium channel was measured in the same manner as in Example 1, except that the compound of the present invention was used instead of 6-prenylnaringenin.

[2] = test system: PSNL-induced hyperalgesia; experiment: Partial sciatic nerve ligation (PSNL)-induced hyperalgesia, pain threshold by von Frey method; format: in vivo, ddY male mice; details: 10 to 30 mg/kg intraperitoneally, mice 7 days after PSNL, versus vehicle group after PSNL
Experimental: PSNL-induced hyperalgesia was performed using ddY male mice under inhaled isoflurane anesthesia by incising the skin on the femur of the mouse and exposing ⅓ to ½ of the exposed sciatic nerve was completely ligated with a 8-0 suture. […] The pain threshold was measured by the von Frey method.
Compounds-40, 41, 45 and 47 were suspended in 5% aqueous carboxymethylcellulose and administered intraperitoneally using mice after 7 days of PSNL treatment, which is considered to be a chronic phase in which hyperalgesia is stable, and Pain thresholds were measured every minute. As controls, a group to which a solvent was administered after sham operation and a group to which a solvent and 6-prenylnaringenin were administered after induction of hyperalgesia by PNSL were provided.

| Structure (SMILES) | Ratio of IC50 value to IC50 value of 6-prenylnaringenin (%) [1] | T-type calcium channel inhibitory action (in words) [1] | Effect on PSNL-induced hyperalgesia (pain threshold) [2] | further results |
| --- | --- | --- | --- | --- |
| O=C1CC(c2ccc(O)cc2)Oc2cc(O)c(CCC3CCCC3)c(O)c21 (stereo not shown) [Compound-47, 6-(2-cyclopentyl-ethyl)-5,7-dihydroxy-2-(4-hydroxy-phenyl)-chroman-4-one] | 8.1% | excellent T-type calcium channel inhibitory activity in vitro | significantly suppressed hyperalgesia |  |
| CC(C)=CCc1c(O)cc2c(c1O)C(=O)CC(c1cccc(O)c1)O2 (stereo not shown) [Compound-34, 5,7-dihydroxy-2-(3-hydroxy-phenyl)-6-(3-methyl-but-2-enyl)-chroman-4-one] | 12.5% |  |  |  |
| O=C1CC(c2ccc(O)cc2)Oc2cc(O)c(CC=C3CCCC3)c(O)c21 (stereo not shown) [Compound-41, 6-(2-cyclopentylidene-ethyl)-5,7-dihydroxy-2-(4-hydroxy-phenyl)-chroman-4-one] | 9.0% | excellent T-type calcium channel inhibitory activity in vitro | significantly suppressed hyperalgesia |  |
| CC(C)=CCc1c(O)cc2c(c1O)C(=O)CC(c1ccccc1O)O2 (stereo not shown) [Compound-33, 5,7-dihydroxy-2-(2-hydroxy-phenyl)-6-(3-methyl-but-2-enyl)-chroman-4-one] | 12.2% |  |  |  |
| CCC(CC)CCc1c(O)cc2c(c1O)C(=O)CC(c1ccc(O)cc1)O2 (stereo not shown) [Compound-46, 6-(3-ethyl-pentyl)-5,7-dihydroxy-2-(4-hydroxy-phenyl)-chroman-4-one] | 15.0% |  |  |  |
| CC(C)=CCc1c(O)cc2c(c1O)C(=O)CC(c1ccc(O)c(O)c1)O2 (stereo not shown) [Compound-36, 2-(3,4-dihydroxy-phenyl)-5,7-dihydroxy-6-(3-methyl-but-2-enyl)-chroman-4-one] | 87.5% |  |  |  |
| CCC(=CCc1c(O)cc2c(c1O)C(=O)CC(c1ccccc1O)O2)CC (stereo not shown) [Compound-45, 6-(3-ethyl-pent-2-enyl)-5,7-dihydroxy-2-(2-hydroxy-phenyl)-chroman-4-one] | 2.3% | excellent T-type calcium channel inhibitory activity in vitro | significantly suppressed hyperalgesia |  |
| CCCC(=CCc1c(O)cc2c(c1O)C(=O)CC(c1ccc(O)cc1)O2)CCC (stereo not shown) [Compound-48, 5,7-dihydroxy-2-(4-hydroxy-phenyl)-6-(3-propyl-hex-2-enyl)-chroman-4-one] | 54.8% |  |  |  |
| CC(C)=CCc1c(O)cc2c(c1O)C(=O)C[C@@H](c1ccc(O)cc1)O2 [6-prenylnaringenin, 6-Prenylnaringenin, reference compound] |  | excellent T-type calcium channel inhibitory action |  | pIC50 ([1]; calculated by GraphPad Prism from the results of Example 1): 6.10; Inhibition rate (%) ([1]; compound concentration 300 nM): 0%; Inhibition rate (%) ([1]; compound concentration 1000 nM): 82.7%; Inhibition rate (%) ([1]; compound concentration 3000 nM): 99.0% |
| CCC(=CCc1c(O)cc2c(c1O)C(=O)CC(c1ccc(O)cc1)O2)CC (stereo not shown) [Compound-40, 6-(3-ethyl-pent-2-enyl)-5,7-dihydroxy-2-(4-hydroxy-phenyl)-chroman-4-one] | 7.7% | excellent T-type calcium channel inhibitory activity in vitro | significantly suppressed hyperalgesia |  |
| CC(C)=CCc1ccc2c(c1O)C(=O)CC(c1ccccc1O)O2 (stereo not shown) [Compound-43, 5-hydroxy-2-(2-hydroxy-phenyl)-6-(3-methyl-but-2-enyl)-chroman-4-one] | 26.6% |  |  |  |
| CC(C)=CCc1c(O)cc2c(c1O)C(=O)CC(c1c(O)cccc1O)O2 (stereo not shown) [Compound-42, 2-(2,6-dihydroxy-phenyl)-5,7-dihydroxy-6-(3-methyl-but-2-enyl)-chroman-4-one] | 72.3% |  |  |  |
| CC(C)CCc1c(O)cc2c(c1O)C(=O)CC(c1ccc(O)cc1)O2 (stereo not shown) [Compound-39, 5,7-dihydroxy-2-(4-hydroxy-phenyl)-6-(3-methyl-butyl)-chroman-4-one] | 10.6% |  |  |  |
